# Test results as given in US8518995B2, “Methods and compositions for the treatment of irritable bowel syndrome” (MediciNova, Inc., priority 2010, dated 2013).
# Assays:
# [1] = test system: subjects with the irritable bowel syndrome (IBS); experiment: Effects of MN-221 on rectosigmoid motility (intraluminal pressure, systemic effects, plasma levels) in IBS subjects; assay type: in vivo, human
# Source text: In this study, subjects with the irritable bowel syndrome (IBS) are studied with regard to the effects of MN-221 on rectosigmoid motility.
# Men and women aged 24-52 years are included in the study. The diagnosis of IBS is made on the basis of the following criteria: 1) symptoms lasting more than few months; 2) abdominal pain with or without relation to meals; 3) constipation or a combination of diarrhea and constipation; 4) normal colonic barium enema and sigmoidoscopy; 5) negative test for lactose intolerance; and 6) negative finding on stool culture.
# The subjects are all symptomatic at the time of the study. The subjects are taking no medications of significant importance for intestinal motility. Informed consent is obtained from each subject.
# After a 12 hours fast, all subjects undergo sigmoidoscopy without air insufflations. A probe with one to three polyethylene catheters is inserted through the sigmoidoscope so that the proximal catheter is about 18-20 centimeter (cm) from the anal margin, the tip of the second catheter about 5 cm below, and the third catheter is positioned just inside the internal sphincter. An about 5-cm-long balloon surrounds each of the two distal catheters. The distal balloon is inflated with about 20 milliliter (mL) of air to prevent the device from moving in the distal direction. The balloon in the upper rectum, connected to the middle catheter, is kept inflated with about 80 ml of air in 10 of the subjects and with about 60 mL in the other 2 subjects throughout the recording sessions. Each subject has the same balloon volume during the three examinations.
# Intra-luminal pressure is measured from the proximal rectal balloon and the sigmoid catheter (inside diameter, about 1.67 millimeter (mm)), which is open tipped with a side orifice of about 1.5 mm diameter.
# The catheter is continuously perfused with body-temperature water at 3.5 mL/h by means of an infusion pump. Pressure is transmitted to transducers (e.g., Statham P 23 Db, Statham Instruments, Hato Ray, Puerto Rico) and recorded on a Grass RPS 7C polygraph (e.g., Grass Instrument Co., Quincy, Mass.). To determine motility, the area under the pressure curves is continuously determined by integrators (such as, e.g., Grass 7P 10). As an index of contractile activity, the total area minus the area under an estimated basal pressure line is used. The principle for motility calculation is described in detail in Abrahamsson et al. Dig Dis Sci 1983, 28, 590-594.
# Motility index is expressed as kPa×min (1 kPa×min=7.5 mm Hg×min). The study is randomized and double blinded. Each subject is investigated on 3 different days with not less than 5 days between each investigation to avoid any possible influence of an earlier drug infusion. After an initial rest period of 30 minutes (min), pressure is quantified for three periods of 25 min. The first period, designated the control period, is preceded by saline infusion, 1 mL/min, for 5 min. The following two test periods are each preceded by an infusion of 0.25 mg MN-221 intravenously to a total amount of 0.50 mg on the 1st day, 1.0 mg on the 2nd day, and 5 ml placebo (plus 5 mL saline) on the 3rd day.
# The blood pressure and heart rate are measured by a sphygmomanometer 10 and 25 min after the end of each drug infusion. […]
# Results are expressed as the mean±SEM. […]
# The plasma concentration of MN-221 is determined by liquid chromatography and mass spectrometry.
# [2] = test system: subjects suffering from IBS; experiment: Effects of MN-221 on human esophageal peristalsis (manometry, heart rate, finger tremor) in IBS subjects; assay type: in vivo
# Source text: This study investigates the inhibitory influence of beta-2-adrenergic stimulation by MN-221 on esophageal motility with little to no incidence of significant adverse side effects. In the study, esophageal peristalsis is studied in subjects suffering from IBS. The subjects have no history of gastrointestinal or cardiovascular disease. Subjects are considered to have the irritable bowel syndrome if they have an abdominal pain with or without diarrhea or constipation. Relief of pain by defecation, abdominal distension, a feeling of incomplete evacuation, and/or a response to a high-residue diet are taken as useful additional symptoms. The blood picture, erythrocyte sedimentation rate, and results of sigmoidoscopy, rectal biopsy, and barium enema are normal in all subjects. The symptoms of the subjects, including dysphagia and heartburn, are recorded on data sheets for correlation with manometric findings.
# Each subject is orally given MN-221, 5 mg three times daily, for 10 days. […] At each session esophageal peristaltic pressure, heart rate, and finger tremor are assessed.
# Manometric studies are performed with a triple-lumen tube with each channel perfused with water, 0.5 ml/min, via a low-compliance capillary system. […] Thus, pressure is recorded about 18 cm proximal to the LES (proximal esophagus), about 10 cm proximal to the LES (middle esophagus), and about 2 cm proximal to the LES (distal esophagus).
# After a resting period of 20 min., esophageal peristalsis in response to 20 wet swallows (water bolus of 5 ml, room temperature) is recorded. […] Each recording curve is coded and read by one investigator who is not aware of the subject's study day. The amplitude of the peristaltic pressure waves is measured at each recording point, and an individual mean value for the 20 swallows is calculated for each examination.
# At each session, heart rate is recorded in the resting subject and calculated as a mean value for 2 min. Finger tremor are assessed with an optical method (e.g., Opto-Tremor Graph, Draco), and the middle finger of the right hand is chosen for measurement. […]
# [3] = test system: subjects with the irritable bowel syndrome (IBS); settings: including increase in systolic blood pressure and the heart rate; cited from earlier work
# [4] = test system: subjects suffering from IBS; settings: including increase in the heart rate and finger tremors; cited from earlier work
# [5] = during oral medication, 5 mg three times daily, 10 days
SMILES,complaints or discomfort among the subjects ([1]; after infusion of MN-221),"plasma concentrations ([1]; after intravenous infusion, 0.50 and 1.0 mg total)",systolic and diastolic blood pressure and heart rate ([1]; infusion to a total of 0.50 mg intravenously),systolic and diastolic blood pressure and heart rate ([1]; infusion to a total of 1.0 mg intravenously),"adverse side effects ([1]; intravenous infusion, IBS subjects)","finger tremor [2, 5]","heart rate [2, 5]","adverse side effects ([2]; oral medication, IBS subjects)",adverse side effects (comparison drug) [3],adverse side effects (comparison drug) [4]
"CN(C)C(=O)COc1ccc2c(c1)CC(NCC(O)c1ccc(O)c(CCO)c1)CC2 (single isomer, unassigned; (-)) [MN-221]",No major complaints or discomfort,within the therapeutic levels,no significant increase in the systolic blood pressure; decrease in the diastolic blood pressure; and/or increase in the heart rate,no significant increase in systolic blood pressure; decrease in diastolic blood pressure; and/or increase in heart rate,little to no adverse side effects,do not change,do not change,little to no adverse side effects,–,–
CC(C)(C)NCC(O)c1cc(O)cc(O)c1 (stereo not shown) [terbutaline],–,–,–,–,–,–,–,–,undesirable incidence of significant adverse side effects,undesirable incidence of significant adverse side effects
